In US11702404B2, “GLP-1R modulating compounds” (priority 2019, dated 2023):
Like-named read-outs stand apart in the source and are kept apart here.

Legend:
[1] = biological target: GLP-1R (Homo sapiens, UniProt P43220); test: GLP-1R activation: cAMP increase in CHO cells stably expressing GLP-1R; format: cell-based
[2] = Microsomal stability, human liver microsomes (predicted hepatic clearance); settings: predicted from in vitro microsomal stability data
[3] = cAMP increase, CHO cells stably expressing GLP-1R, 10 point dose response, 30 minutes incubation, read-out: EC50

Sequence of GLP-1R (P43220 24-463): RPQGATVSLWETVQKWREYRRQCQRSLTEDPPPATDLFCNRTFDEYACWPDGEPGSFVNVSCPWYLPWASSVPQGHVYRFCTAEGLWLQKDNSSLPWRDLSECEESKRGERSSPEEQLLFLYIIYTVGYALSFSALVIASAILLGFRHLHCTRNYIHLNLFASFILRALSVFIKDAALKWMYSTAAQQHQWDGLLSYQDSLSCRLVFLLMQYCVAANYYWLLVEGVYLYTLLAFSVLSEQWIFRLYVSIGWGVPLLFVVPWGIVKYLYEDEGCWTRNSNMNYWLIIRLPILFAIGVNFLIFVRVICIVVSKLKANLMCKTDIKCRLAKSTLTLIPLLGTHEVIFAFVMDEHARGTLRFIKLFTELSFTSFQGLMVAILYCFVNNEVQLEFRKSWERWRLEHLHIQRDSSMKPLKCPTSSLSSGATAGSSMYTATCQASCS

| Compound | EC50 [1, 3] [nM] | Predicted Hepatic Clearance (Pred. Cl.) [2] [L/h/kg] | EC50 ([1]; EC50 (nM)) [nM] |
| --- | --- | --- | --- |
| N#Cc1ccc(COc2cccc(-c3ccc(Cc4nc5ccc(C(=O)O)cc5n4C[C@@H]4CCO4)cc3F)n2)c(F)c1 [Example 523, (S)-2-(4-(6-((4-cyano-2-fluorobenzyl)oxy)pyridin-2-yl)-3-fluorobenzyl)-1-(oxetan-2-ylmethyl)-1H-benzo[d]imidazole-6-carboxylic acid] | 0.51 | 0.3 | – |
| COCCCn1c(Cc2ccc(-c3cccc(OCc4ccc(C#N)cc4F)n3)cc2F)nc2ccc(C(=O)O)cc21 [Example 390, 2-(4-(6-((4-cyano-2-fluorobenzyl)oxy)pyridin-2-yl)-2-fluorobenzyl)-1-(3-methoxypropyl)-1H-benzo[d]imidazole-6-carboxylic acid] | 26.4 | 0.45 | – |
| COCCn1c(Cc2ccc(-c3cccc(OCc4cccc(C(C)(C)C#N)c4)n3)cc2F)nc2ccc(C(=O)O)cc21 [Example 142, 2-(4-(6-((3-(2-cyanopropan-2-yl)benzyl)oxy)pyridin-2-yl)-2-fluorobenzyl)-1-(2-methoxyethyl)-1H-benzo[d]imidazole-6-carboxylic acid] | 162 | 0.53 | – |
| N#Cc1ccc(COc2cccc(-c3ccc(Cc4nc5ccc(C(=O)O)cc5n4[C@H]4CCOC4)c(F)c3)n2)c(F)c1 [Example 204, (S)-2-(4-(6-((4-cyano-2-fluorobenzyl)oxy)pyridin-2-yl)-2-fluorobenzyl)-1-(tetrahydrofuran-3-yl)-1H-benzo[d]imidazole-6-carboxylic acid] | 7.37 | 0.32 | – |
| COC[C@H](C)n1c(Cc2cc(F)c(-c3cccc(OCc4ccc(C#N)cc4F)n3)cc2F)nc2ccc(C(=O)O)cc21 [Example 559, (S)-2-(4-(6-((4-cyano-2-fluorobenzyl)oxy)pyridin-2-yl)-2,5-difluorobenzyl)-1-(1-methoxypropan-2-yl)-1H-benzo[d]imidazole-6-carboxylic acid] | 2.62 | 0.41 | – |
| N#CCC1(Cn2c(Cc3ccc(-c4cccc(OCc5ccc(C#N)cc5F)n4)cc3C#N)nc3ccc(C(=O)O)cc32)CC1 [Example 388, 2-(2-cyano-4-(6-((4-cyano-2-fluorobenzyl)oxy)pyridin-2-yl)benzyl)-1-((1-(cyanomethyl)cyclopropyl)methyl)-1H-benzo[d]imidazole-6-carboxylic acid] | 0.24 | 0.31 | – |
| COCCn1c(Cc2cc(F)c(-c3cccc(OCc4ccc(-c5cc[nH]c(=O)c5)cc4F)n3)cc2F)nc2ccc(C(=O)O)cc21 [Example 912] | 15.3 | 0.11 | – |
| COCCn1c(Cc2ccc(-c3cccc(OCc4cccc(C(C)C)c4OC)n3)cc2F)nc2ccc(C(=O)O)cc21 [Example 157, 2-(2-fluoro-4-(6-((3-isopropyl-2-methoxybenzyl)oxy)pyridin-2-yl)benzyl)-1-(2-methoxyethyl)-1H-benzo[d]imidazole-6-carboxylic acid] | 534 | 0.46 | – |
| CC12CCC(Cn3c(Cc4cc(F)c(-c5cccc(OCc6ccc(C#N)cc6F)n5)cc4F)nc4ccc(C(=O)O)cc43)(C1)OC2 (stereo not drawn) [Example 714] | 24.9 | 0.11 | – |
| COCCn1c(Cc2ccc(-c3cccc(OCc4cccc(S(C)(=O)=O)c4)n3)cc2F)nc2ccc(C(=O)O)cc21 [Example 495, 2-(2-fluoro-4-(6-((3-(methylsulfonyl)benzyl)oxy)pyridin-2-yl)benzyl)-1-(2-methoxyethyl)-1H-benzo[d]imidazole-6-carboxylic acid] | 777 | 0.35 | – |
| COCCn1c(Cc2ccc(-c3cccc(OCc4ccc(Cl)c5ccoc45)n3)cc2F)nc2ccc(C(=O)O)cc21 [Example 143, 2-(4-(6-((4-chlorobenzofuran-7-yl)methoxy)pyridin-2-yl)-2-fluorobenzyl)-1-(2-methoxyethyl)-1H-benzo[d]imidazole-6-carboxylic acid] | 2.59 | 0.32 | – |
| COCCn1c(Cc2ccc(-c3cccc(OCc4ccc(C#N)cc4F)n3)cc2-c2ccncc2)nc2ccc(C(=O)O)cc21 [Example 175, 2-(4-(6-((4-cyano-2-fluorobenzyl)oxy)pyridin-2-yl)-2-(pyridin-4-yl)benzyl)-1-(2-methoxyethyl)-1H-benzo[d]imidazole-6-carboxylic acid] | 9270 | 0.94 | – |
| O=C(O)c1ccc2nc(Cc3cc(F)c(-c4cccc(OCc5ccc(C(F)F)cc5F)n4)cc3F)n(Cc3ncco3)c2c1 [Example 608] | 0.74 | 0.11 | – |
| COCCn1c(Cc2cc(F)c(-c3cccc(OCc4ccc(C)nc4F)n3)cc2F)nc2ccc(C(=O)O)cc21 [Example 822] | 3.49 | 0.11 | – |
| COCCn1c(Cc2ccc(-c3cccc(OCc4cccc5c4OC(C)(C)C5)n3)cc2F)nc2ccc(C(=O)O)cc21 [Example 152, 2-(4-(6-((2,2-dimethyl-2,3-dihydrobenzofuran-7-yl)methoxy)pyridin-2-yl)-2-fluorobenzyl)-1-(2-methoxyethyl)-1H-benzo[d]imidazole-6-carboxylic acid] | 130 | 0.7 | – |
| COCCn1c(Cc2ccc(-c3ccc(N)c(OCc4ccc(C#N)cc4F)c3)cc2F)nc2ccc(C(=O)O)cc21 [Example 82, 2-((4′-amino-3′-((4-cyano-2-fluorobenzyl)oxy)-3-fluoro-[1,1′-biphenyl]-4-yl)methyl)-1-(2-methoxyethyl)-1H-benzo[d]imidazole-6-carboxylic acid] | 264 | 0.22 | – |
| COc1cc(C#N)ccc1COc1cccc(-c2cc(F)c(Cc3nc4ccc(C(N)=O)cc4n3CC3(CC#N)CC3)cc2F)n1 [Example 598, 2-(4-(6-((4-cyano-2-methoxybenzyl)oxy)pyridin-2-yl)-2,5-difluorobenzyl)-1-((1-(cyanomethyl)cyclopropyl)methyl)-1H-benzo[d]imidazole-6-carboxamide] | 0.28 | 1.15 | – |
| COCCn1c(Cc2cc(F)c(-c3cccc(OCc4ccc(C#N)nc4)n3)cc2F)nc2ccc(C(=O)O)cc21 [Example 820] | – | 0.16 | 11.5 |
| COCCn1c(Cc2ccc(-c3nsc(OCc4ccc(C#N)cc4F)n3)cc2F)nc2ccc(C(=O)O)cc21 [Example 63, 2-{[4-[5-[(4-cyano-2-fluoro-phenyl)methoxy]-1,2,4-thiadiazol-3-yl]-2-fluoro-phenyl]methyl}-3-(2-methoxyethyl)benzimidazole-5-carboxylic acid] | 164 | <0.11 | – |
| COCCn1c(Cc2ccc(-c3cccc(OCc4ccc(C#N)cc4F)n3)cc2F)nc2ccc(C3(C(=O)O)CC3)cc21 [Example 210, 1-(2-(4-(6-((4-cyano-2-fluorobenzyl)oxy)pyridin-2-yl)-2-fluorobenzyl)-1-(2-methoxyethyl)-1H-benzo[d]imidazol-6-yl)cyclopropane-1-carboxylic acid] | ≥ 1000 | 0.265 | – |
| Cn1nnc(Cn2c(Cc3ccc(-c4cccc(OCc5ccc(C#N)cc5F)n4)cc3F)nc3ccc(C(=O)O)cc32)n1 [Example 226, 2-(4-(6-((4-cyano-2-fluorobenzyl)oxy)pyridin-2-yl)-2-fluorobenzyl)-1-((2-methyl-2H-tetrazol-5-yl)methyl)-1H-benzo[d]imidazole-6-carboxylic acid] | 139 | 0.22 | – |
| COCCn1c(Cc2ccc(-c3cccc(OCc4ccc(C#N)cc4F)n3)cc2Cl)nc2ccc(C(=O)O)cc21 [Example 38, 2-(2-chloro-4-(6-((4-cyano-2-fluorobenzyl)oxy)pyridin-2-yl)benzyl)-1-(2-methoxyethyl)-1H-benzo[d]imidazole-carboxylic acid] | 6.18 | 0.32 | – |
| COCCn1c(Cc2c(F)cc(-c3ncc(F)c(OCc4ccc(C#N)cc4F)n3)c(F)c2F)nc2ccc(C(=O)O)cc21 [Example 124, 2-(4-(4-((4-cyano-2-fluorobenzyl)oxy)-5-fluoropyrimidin-2-yl)-2,3,6-trifluorobenzyl)-1-(2-methoxyethyl)-1H-benzo[d]imidazole-6-carboxylic acid] | 0.67 | 0.19 | – |
| COCCn1c(Cc2ccc(-c3cccc(OCc4ccc(C#N)cc4F)n3)cc2OC)nc2ccc(C(=O)O)cc21 [Example 33, 2-(4-(6-((4-cyano-2-fluorobenzyl)oxy)pyridin-2-yl)-2-methoxybenzyl)-1-(2-methoxyethyl)-1H-benzo[d]imidazole-6-carboxylic acid] | 26.9 | 0.3 | – |
| N#Cc1ccc(COc2cccc(-c3cc(F)c(Cc4nc5ccc(C(=O)O)cc5n4CCOC4CCC4)cc3F)n2)c(F)c1 [Example 628] | 13.4 | 0.19 | – |
| N#Cc1ccc(COc2cccc(-c3ccc(Cc4nc5ccc(C(=O)O)cc5n4C4CC4)c(F)c3)n2)c(F)c1 [Example 356, 2-(4-(6-((4-cyano-2-fluorobenzyl)oxy)pyridin-2-yl)-2-fluorobenzyl)-1-cyclopropyl-1H-benzo[d]imidazole-6-carboxylic acid] | 48.7 | 0.43 | – |
| COCCn1c(Cc2ccc(-c3cccc(OCn4ccc(C#N)cc4=O)n3)cc2F)nc2ccc(C(=O)O)cc21 [Example 513, 2-(4-(6-((4-cyano-2-oxopyridin-1(2H)-yl)methoxy)pyridin-2-yl)-2-fluorobenzyl)-1-(2-methoxyethyl)-1H-benzo[d]imidazole-6-carboxylic acid] | 55.1 | 0.31 | – |
